One may read the Ki as the dissociation constant of the complex between target and ligand, obtained from inhibition or displacement. A high value points to weaker binding.

The target in test [1] is purified and modified human CYP17A1 (Homo sapiens, UniProt P05093). Description: Spectral assay for ligand binding. The settings on record: for type of difference spectrum induced: UV-visible difference spectroscopy; for Kd: read-out: Ks (spectral binding constant), 200 nM CYP17A1, 0.1 M potassium phosphate pH 7.4, 20% glycerol, room temperature, means ± SE of 2-4 experiments.

For test [2], the target named is T1, native human CYP17A1 enzyme in yeast microsomes (Homo sapiens, UniProt P05093).
T1 sequence (P05093 1-508): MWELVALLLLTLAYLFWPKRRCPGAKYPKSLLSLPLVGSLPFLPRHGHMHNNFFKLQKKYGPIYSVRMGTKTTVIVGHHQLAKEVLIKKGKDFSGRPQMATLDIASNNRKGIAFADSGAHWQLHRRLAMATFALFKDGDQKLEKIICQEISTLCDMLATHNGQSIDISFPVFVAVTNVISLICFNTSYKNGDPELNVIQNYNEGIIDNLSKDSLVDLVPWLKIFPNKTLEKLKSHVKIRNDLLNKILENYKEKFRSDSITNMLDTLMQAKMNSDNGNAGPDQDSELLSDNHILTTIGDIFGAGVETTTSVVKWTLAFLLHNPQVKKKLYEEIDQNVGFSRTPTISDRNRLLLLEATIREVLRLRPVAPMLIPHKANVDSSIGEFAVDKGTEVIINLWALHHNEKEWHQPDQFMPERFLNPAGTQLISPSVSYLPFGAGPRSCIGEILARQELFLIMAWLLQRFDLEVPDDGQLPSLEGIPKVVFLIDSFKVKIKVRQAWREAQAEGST
Description: CYP17A1 hydroxylase activity assay. The test is classed as biochemical. The settings on record: for mode of inhibition: Lineweaver-Burk and Cornish-Bowden plots, progesterone hydroxylation.

The subject of a further test is CYP17A1. The settings on record: CYP17A1 inhibitor; statement in introduction, no reference given; cited from earlier work.

Each structure is given as a SMILES string. Entries after “also recorded” stand apart in the source; their conditions may differ.

As to `C[C@]12CC[C@@H](O)C=C1CC[C@@H]1[C@@H]2CC[C@]2(C)C(c3cccnc3)=CC[C@@H]12` [Compound 13, 17-(3-pyridyl)androsta-4,16-dien-3α-ol], in test [1], the “type of difference spectrum induced” value is “type II difference spectrum” and the Kd was 1660 ± 286 nM. For the same molecule, in test [2], the affinity, expressed as Ki, was 80 nM and the “mode of inhibition” value was “primarily non-competitive inhibition; also recorded: non-competitive inhibitor; also recorded: primarily noncompetitive; also recorded: largely noncompetitive mode of inhibition”. Besides, the Type of inhibition result in test [2] (progesterone as substrate) is “N”.

For the molecule `C[C@]12CC[C@H](O)CC1=CC[C@@H]1[C@@H]2CC[C@]2(C)C(c3cccnc3)=CC[C@@H]12` [Abiraterone, abiraterone, reference compound], in test [1], the “type of difference spectrum induced” value was “type II difference spectrum” and the Kd is 2.6 ± 3.2 nM. The affinity in test [2] corresponds to a Ki of 27 nM. In addition, the “mode of inhibition” value in test [2] (listed as Abi) is recorded as “mixed-type inhibitors”. In the test with CYP17A1, the “potency relative to ketoconazole” value is listed as “about 20 times”.

As for `C[C@]12CCC(=O)C=C1CC[C@@H]1[C@@H]2CC[C@]2(C)C(c3cccnc3)=CC[C@@H]12` [Compound 11, 17-(3-pyridyl)androsta-4,16-dien-3-one], in test [1], the “type of difference spectrum induced” value was “type II difference spectrum”. Also, in test [2], the affinity, expressed as Ki, was 22 nM and the “mode of inhibition” value is “mixed-type inhibitors; also recorded: mixed competitive-noncompetitive inhibition”.

Take `C[C@]12CC[C@@H](O)C[C@@H]1CC[C@@H]1[C@@H]2CC[C@]2(C)C(c3cccnc3)=CC[C@@H]12` [Compound 5, 17-(3-pyridyl)-5α-androsta-16-ene-3α-ol]: the “type of difference spectrum induced” value in test [1] was “type II difference spectrum”. In test [2], the affinity corresponds to a Ki of 14 nM and the “mode of inhibition” value was “mixed-type inhibitors; also recorded: mixed competitive-noncompetitive inhibition”.

As to `C[C@]12CCC(=O)C[C@@H]1CC[C@@H]1[C@@H]2CC[C@]2(C)C(c3cccnc3)=CC[C@@H]12` [Compound 6, 17-(3-pyridyl)-5α-androsta-16-ene-3-one], the “type of difference spectrum induced” value in test [1] was “type II difference spectrum”. For the same molecule, in test [2], the Ki worked out at 7 nM and the “mode of inhibition” value is given as “mixed-type inhibitors; also recorded: mixed competitive-noncompetitive inhibition”.

The values are drawn from paper PMC4272579 (The Journal of steroid biochemistry and molecular biology, 2014).
